The source of these data is article PMC8579695, “The Stringent Response Inhibits 70S Ribosome Formation in Staphylococcus aureus by Impeding GTPase-Ribosome Interactions” (mBio, 2021).

The test has as its system HflX binding to 50S ribosomes. In words: Stopped-flow fluorescence kinetics of HflX-Atto488 association to 50S subunits. More on the design: species or system Staphylococcus aureus. The method, then:
FIG 3 Stopped-flow kinetic parameters of RA-GTPase association to the ribosomal subunits. (A) Schematic representation of the experimental setup for stopped-flow analysis. Nucleotides (brown circles), 50S subunits (orange oval), and Atto488-labeled RA-GTPases (purple hexagon) are indicated. Arrows indicate the direction of syringe movement. Atto-488 was excited using a 470-nm LED, and fluorescence was detected through a 515-nm long-pass filter. (B and C) Fluorescent change upon mixing 0.2 μM RbgA-Atto488 (B) or HflX-Atto488 (C) with 0.2 μM 50S ribosomal subunits in the presence of 100 μM GTP, ppGpp, and pppGpp or in the apo state using the stopped-flow fluorescence apparatus. Fluorescently labeled protein was also mixed with buffer lacking 50S subunits as a mixing control. Fluorescence of the reaction was tracked using exponential sampling for 10 s, and each curve represents the mean average of at least five technical replicates. (D) kapp1 dependence on 50S concentration for HflX complexed with GTP (green), ppGpp (pink), and pppGpp (black). (E) Same as for panel D for the kapp2 dependence. (F and G) Sum and product analyses of apparent rates during HflX association to the 50S subunit. HflX-Atto488 (0.05 μM) was mixed with increasing titrations of 50S ribosomal subunits over the fluorescently labeled protein in the presence of 20 μM GTP or ppGpp. The resultant traces (see Fig. S4) were analyzed by nonlinear regression using two exponential terms. The sum (F) and product (G) of apparent rates (kapp1 [D] and kapp2 [E]) were plotted as a function of the total concentration of the 50S subunits and HflX protein to determine the microscopic constants k1, k-1, k2, and k-2 (Table 2) and the resulting dissociation constant (Kd) (see Materials and Methods). Error bars represent the standard deviations of the apparent rates of four or more individual traces (D and E) or the standard errors of the two-step analysis (F and G).
Next, we used a constant concentration of protein in the presence of 200-fold excess of each nucleotide and titrated it with increasing concentrations of ribosomal subunits (see Fig. S4). […]
For initial controls, 0.2 μM Atto-488-labeled proteins were rapidly mixed with 0.2 μM E. coli 50S ribosomal subunits (purified as described elsewhere) in TAKM7 buffer (25 mM Tris-HCl [pH 7.4], 70 mM ammonium acetate, 30 mM KCl, 7 mM MgCl2) using an SX20 stopped-flow apparatus (Applied Photophysics) in the presence or absence of GTP, ppGpp, and pppGpp. […] Atto-488 was excited using a 470-nm LED and fluorescence was detected through a 515-nm long-pass filter. Reactions were monitored for 10 s, with 1,000 total data points per reaction. Each condition was subject to at least five technical repeats, with curves representing the mean average fluorescence of the technical repeats. […]

On to `Nc1nc2c(ncn2[C@@H]2O[C@H](COP(=O)(O)OP(=O)(O)O)[C@@H](OP(=O)(O)OP(=O)(O)O)[C@H]2O)c(=O)[nH]1` [ppGpp], for which the “reduction of the second, slow-phase reaction of HflX relative to GTP-bound” value came to 4 fold. Besides, the “kapp2 of HflX association to 50S” value (GTP: hyperbolic, plateau, ppGpp: independent of 50S concentration) turned out to be 1.0 s⁻¹.
